Measurements taken from article PMC8431370, “The Second-Generation PIM Kinase Inhibitor TP-3654 Resensitizes ABCG2-Overexpressing Multidrug-Resistant Cancer Cells to Cytotoxic Anticancer Drugs” (International Journal of Molecular Sciences, 2021).

Assays:
[1] = target: T1, ATP-binding cassette (ABC) subfamily G member 2 (ABCG2) (Homo sapiens, UniProt Q9UNQ0); assay: flow cytometry inhibition of pheophorbide A efflux in ABCG2-transfected HEK293 cells (also S1-M1-80 and H460-MX20); type: cell-based
T1 construct: ABCG2-transfected R482-HEK293 cells
T1 sequence (Q9UNQ0 1-655): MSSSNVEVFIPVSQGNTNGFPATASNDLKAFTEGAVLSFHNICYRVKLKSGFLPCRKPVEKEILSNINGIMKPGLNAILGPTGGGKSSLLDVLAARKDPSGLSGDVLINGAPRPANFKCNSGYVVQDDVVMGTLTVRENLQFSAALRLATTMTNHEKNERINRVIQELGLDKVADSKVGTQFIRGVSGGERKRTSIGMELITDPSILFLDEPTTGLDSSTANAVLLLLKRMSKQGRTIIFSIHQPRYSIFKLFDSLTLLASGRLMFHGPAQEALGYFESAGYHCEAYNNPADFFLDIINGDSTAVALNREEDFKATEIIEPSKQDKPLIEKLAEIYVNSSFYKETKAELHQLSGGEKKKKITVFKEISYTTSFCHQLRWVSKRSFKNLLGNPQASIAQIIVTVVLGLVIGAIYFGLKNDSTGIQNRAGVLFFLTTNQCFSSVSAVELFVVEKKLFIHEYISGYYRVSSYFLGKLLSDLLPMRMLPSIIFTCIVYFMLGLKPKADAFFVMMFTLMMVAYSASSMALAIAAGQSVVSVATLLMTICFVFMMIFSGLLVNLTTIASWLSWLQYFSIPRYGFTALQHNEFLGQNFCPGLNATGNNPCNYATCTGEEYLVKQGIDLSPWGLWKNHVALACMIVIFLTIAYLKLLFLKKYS
Source text: flow cytometry inhibition of pheophorbide A efflux in ABCG2-transfected HEK293 cells (also S1-M1-80 and H460-MX20) on ATP-binding cassette (ABC) subfamily G member 2 (ABCG2) | TP-3654 inhibited ABCG2-mediated efflux of PhA in ABCG2-transfected R482-HEK293 cells

[2] = target: T1, ATP-binding cassette (ABC) subfamily G member 2 (ABCG2); assay: flow cytometry of ABCG2-mediated efflux in parental and ABCG2-transfected HEK293 cells; type: cell-based

| Compound | IC50 [1] | flow cytometry of ABCG2-mediated efflux in parental and ABCG2-transfected HEK293 [2] |
| --- | --- | --- |
| CC(C)(O)[C@H]1CC[C@H](Nc2ccc3ncc(-c4cccc(C(F)(F)F)c4)n3n2)CC1 [TP-3654] | ~0.14 µM | – |
| C=Cc1c(C)c2cc3nc(c4c5[nH]c(cc6nc(cc1[nH]2)C(C)=C6CC)c(C)c5C(=O)[C@@H]4C(=O)OC)[C@@H](CCC(=O)O)[C@@H]3C [pheophorbide A] | – | Flow cytometry analysis of PhA accumulation in parental HEK293 cells and ABCG2-transfected R482-HEK293 cells |
